Assay results taken from publication PMC7274078, “Brain Endothelial Cells Regulate Glucagon-Like Peptide 1 Entry Into the Brain via a Receptor-Mediated Process” (Frontiers in Physiology, 2020).

Legend:
protein kinase A (PKA) = experiment: PKA activity in brain regions and cerebral microvessels after GLP-1 infusion; type: in vivo, rat
Description: Each rat received a systemic infusion of either saline or GLP-1 (Abcam, Cambridge, United Kingdom) (30 pmol/kg/min) via the jugular vein catheter for 10 min. Plasma samples were then collected and rats sacrificed via anesthetic overdose. Cerebral spinal fluid (CSF) and various brain regions (cerebellum, cortex, hippocampus, hypothalamus, and brain stem) were collected for further assays. Cerebral microvessels were isolated as described ([Austin et al., 2010]). Briefly, brain tissue was disrupted with a razor blade followed by passing through an 18G needle. Vessel fragments were harvested using dextran-gradient centrifugation, then collected on a 20 μm pore filter, washed to remove cell debris, and reconstituted in buffer. This was followed by passing through a 100 μm pore size filter. Brain vessels that can pass through the 100 μm filter were considered as cerebral microvessel and used for protein kinase A (PKA) activity assay. […]
(§1) All plasma and CSF samples collected during the study were frozen immediately and stored at −80°C until further analysis of GLP-1 concentration using a total GLP-1 ELISA kit (Merck Millipore, Billerica, MA, United States) ([Knezovic et al., 2018]). To measure PKA activity in brain tissue, cerebral microvessels, or cultured cells, samples were homogenized and lysed in PKA lysis buffer and activity determined using a Pep Tag® non-radioactive protein kinase assay kit (Promega, Madison, WI, United States) ([Christian et al., 2011]). […]
FIGURE 2 GLP-1 infusion increases PKA activity in various brain regions in both normal and vagotomized rats. […] PKA activities in various brain regions were determined in normal rats (A,B) and vagotomized rats (D,E). […] (B,E), Quantitative analysis (B, n = 7; *p < 0.05 vs. saline infusion, Student’s t test) (E, n = 6; *p < 0.05 vs. saline infusion, Student’s t test).
(§2) Each rat received a systemic infusion of either saline or GLP-1 (30 pmol/kg/min) for 10 min, GLP-1 concentrations in CSF and plasma were determined and cerebral microvessels were isolated. […] (D) Quantitative analysis of PKA activity (n = 6, *p < 0.05, Student’s t test).

[1] = GLP-1 concentrations in plasma and CSF (total GLP-1 ELISA); type: in vivo; conditions: rat, systemic infusion 30 pmol/kg/min for 10 min, n = 4
Description: Each rat received a systemic infusion of either saline or GLP-1 (Abcam, Cambridge, United Kingdom) (30 pmol/kg/min) via the jugular vein catheter for 10 min. Plasma samples were then collected and rats sacrificed via anesthetic overdose. Cerebral spinal fluid (CSF) and various brain regions (cerebellum, cortex, hippocampus, hypothalamus, and brain stem) were collected for further assays. Cerebral microvessels were isolated as described ([Austin et al., 2010]). Briefly, brain tissue was disrupted with a razor blade followed by passing through an 18G needle. […]
as §1, §2

[2] = Microvascular perfusion in hippocampus and skeletal muscle (contrast-enhanced ultrasound), with blood glucose and MAP; type: in vivo; conditions: rat
Description: After a 30–45 min baseline period to ensure hemodynamic stability and a stable level of anesthesia, baseline microvascular blood volume (MBV) and microvascular flow velocity (MFV), in the hippocampus and skeletal muscle were determined using contrast-enhanced ultrasound (CEU), as described previously ([Chai et al., 2010]; [Fu et al., 2013], [2017]). In brief, microbubbles (Definity; Lantheus Medical Imaging) were diluted with normal saline (1:10 vol:vol) and infused intravenously at a rate of 0.8 mL/h. Once the systemic microbubble concentrations reached steady state (∼6 min), high-power pulse-inversion ultrasound (HDI-5000; Philips Ultrasound) was used to image the microbubble signals in the hippocampus and the proximal adductor muscle group (adductor magnus and semimembranosus). Intermittent imaging was performed at pulsing intervals ranging from 0.5 to 10 s. At least three images were acquired at each pulsing interval, and the images obtained at 0.5 s were used as background. Pulsing interval vs. background-subtracted video intensity was fitted to the function y = A (1 − e^−βt, with y being video intensity at pulsing interval t. A as the plateau video intensity measures MBV and β represents the rate of microvascular filling (i.e., MFV). Microvascular blood flow (MBF) was calculated by multiplying MBV and MFV. All CEU images were analyzed using the QLAB software (Philips Medical Systems, Andover, MA, United States).
After the baseline hippocampal and muscle microvascular parameters were obtained, rats then received a continuous intravenous infusion of either saline or GLP-1 (30 pmol/kg/min) for 120 min. Hippocampal microvascular parameters (MBV, MFV, and MBF) were again determined every 30 min and muscle microvascular parameters at 120 min using CEU. Throughout the study, mean arterial blood pressure (MAP) was monitored via a sensor connected to the carotid catheter (Harvard Apparatus, Holliston, MA, United States, and AD Instruments, Inc., Colorado Springs, CO, United States). Inactin was infused at a variable rate to maintain steady levels of anesthesia and blood pressure throughout the study. Carotid arterial blood glucose concentrations were determined every 30 min using a Contour Next glucometer (BAYER). At the end of each study the rat was euthanized by an overdose of inactin.
FIGURE 8 GLP-1 infusion increases muscle but not […] microvascular perfusion. Each rat received a systemic infusion of saline or GLP-1 at 30 pmol/kg/min for 120 min and MBV, MFV and MBF were determined using contrast-enhanced ultrasound in both […] (A,B,C) and muscle (D,E,F) (n = 6, *p < 0.05, vs. control, Student’s t test).

DPP4 = conditions: plasma, degradation by DPP4; no reference given; cited from earlier work
From the text: GLP-1 receptors are expressed in multiple brain areas in rodents, primates, and humans and they are involved in learning, neuroprotection and regulation of appetite and satiety ([Wei and Mojsov, 1995]; [During et al., 2003]; [Richards et al., 2014]). Global knockout of the GLP-1 receptor in mice impairs synaptic plasticity and memory formation ([Abbas et al., 2009]). […] Indeed, pre-treatment of animals w ...

[3] = 30 pmol/kg/min i.v. for 120 min, contrast-enhanced ultrasound, n = 6
[4] = 30 pmol/kg/min i.v. for 120 min, n = 6
[5] = 30 pmol/kg/min i.v., at 120 min, contrast-enhanced ultrasound, n = 6, p < 0.05

Glucagon-like peptide 1 [GLP-1]
PKA activity in brain microvessels (protein kinase A (PKA); isolated cerebral microvessels, rat, GLP-1 30 pmol/kg/min for 10 min, n = 6, p < 0.05): acutely increased
PKA activities in all brain regions (protein kinase A (PKA); normal rats, GLP-1 30 pmol/kg/min infusion for 10 min vs saline, n = 7, p < 0.05): significantly increased
PKA activity in various brain regions (protein kinase A (PKA); sham-operated and sub-diaphragmatic vagotomized rats, GLP-1 30 pmol/kg/min for 10 min, n = 6): rapid and robust increase
levels of GLP-1 in CSF [1]: remained undetectable
plasma GLP-1 concentrations [1]: markedly increased
hippocampal MBF [2, 3]: did not alter
hippocampal MBV [2, 3]: did not alter
hippocampal MFV [2, 3]: did not alter
Blood glucose during the study [2, 4]: remained stable
MAP during the study [2, 4]: remained stable
MFV in muscle ([2]; 30 pmol/kg/min i.v., at 120 min, contrast-enhanced ultrasound, n = 6): without affecting
MBF in muscle [2, 5]: markedly increase
MBV in muscle [2, 5]: markedly increase
half-life (DPP4): ~2 min
